Source: patent publication US20230093975A1, “I[…] FOR TREATING CENTRAL NERVOUS SYSTEM DISORDERS” (priority 2021, published 2023)
Like-named read-outs stand apart in the source and are kept apart here.

What was measured:
[1] = Oral rivastigmine pharmacokinetics and estimated CSF uptake (Exelon label); format: in vivo; details: plasma volume 2750 mL, CSF volume 150 mL
Method: Drug coating and formulation development. The absolute bioavailability of oral rivastigmine is approximately 40%, and the AUC1-12 h cerebral spinal fluid (CSF)/plasma ratio is about 40% (Novartis Exelon® Capsules and Oral Solution Prescribing Information). An estimated 0.87% of the rivastigmine oral dose is absorbed and distributed into the CSF. Thus, the daily CSF uptake of this drug is estimated to be between 26-105 μg. As a starting point for the formulation development, we will first target to formulate a matrix loaded with rivastigmine which will be released over 30 days in a near linear manner. Bilateral administration of the rivastigmine matrix would result in approximately 21-107 μg rivastigmine delivered to CSF/day, assuming a CSF bioavailability between 10-50%.
For oral administration, delivery, an absolute bioavailability of Rivastigmine is about 40% and a mean AUC (area under the curve) 1-12 hr CSF/Plasma is about 40% (Exelon Label). The daily doses delivered to CSF are 26 μg/day, 52 μg/day, 79 μg/day, and 105 μg/day for the oral doses, equating to 1.5 mg BID, 3 mg BID, 4.5 mg BID, and 6 mg BID, respectively. For this estimation, a plasma volume of 2750 mL and a CSF volume of 150 mL are used.

[2] = oral rivastigmine, cited from earlier work

## CCN(C)C(=O)Oc1cccc([C@H](C)N(C)C)c1 [Rivastigmine]
[1]
  share of oral dose absorbed and distributed into the CSF: 0.87%
[2]
  AUC1-12 h CSF/plasma ratio: about 40%
[2]; listed as rivastigmine
  AUC1-12 h CSF/plasma ratio: approximately 40%
